Measured values: patent US6589520B1, “Treatment of psoriasis, allergies and auto-immune disorders of the skin with cis-6-hexadecenoic acid” (Beiersdorf AG, priority 1997, dated 2003)
Where a name gives a salt, the structure may show the parent alone.

What was measured:
macrophage = macrophage differentiation test; assay type: cell-based
Source text: This is of importance in the prophylaxis of processes such as, for example, psoriasis or atopy or allergies or auto-immune disorders.

solubility in water = assay type: physicochemical
Description: If salts are sparingly soluble in water, they can be administered in the form of suspensions. […] For example, salts are preferably injected intravenously or intramuscularly in the form of an aqueous solution, such as physiological saline solution. The ampoules contain, for example, 2.5 mg of the fatty acid salt per 5 ml of solution. Ampoules containing, for example, 45 mg of fatty acid salt per milliliter of solution can also be prepared.

| SMILES | anti-inflammatory macrophage-stimulating potency (macrophage) | solubility in water (solubility in water) |
| --- | --- | --- |
| CCCCCCCCC/C=C\CCCCC(=O)O [cis-6-hexadecenoic acid] | showed an anti-inflammatory macrophage-stimulating potency |  |
| CCCCCCC/C=C\CCCCCCCC(=O)O [sodium salt of cis-9-heptadecenoic acid, cis-9-heptadecenoic acid] |  | particularly good solubility in water |
